Laboratory results published in patent publication US4791139A, “Diphenyl ether derivatives and their use as insecticides” (Imperial Chemical Industries PLC, priority 1986, dated 1988).

Experiments:
Type in all cases: in vivo
[1] = system: Myzus persicae (aphids); assay: Contact test, aphids (MP), Chinese Cabbage leaf; conditions: 72 h, 3 days, read-out: MP grading of mortality
Procedure, shortened: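 Aphids on a host plant and/or the plant itself were treated with 100–500 ppm of product, applied from acetone diluted in water containing 0.1% SYNPERONIC NX wetting agent. Mortality was scored usually one to seven days after treatment.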

[2] = system: Spodoptera exigua (lesser army worm - larvae); assay: Residual test, lesser army worm - larvae (SP), Cotton leaf; conditions: 72 h, 3 days, read-out: SP grading of mortality
Procedure, shortened: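 Compound dissolved in acetone and diluted in water with 0.1% Synperonic NX wetting agent to 100–500 ppm. Pests on host plant or food, with pests and/or medium treated. Mortality assessed 1–7 days after treatment and graded A (80–100%), B (50–79%) or C (<50%).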

[3] = system: Heliothis virescens (tobacco budworm - larvae); assay: Residual test, tobacco budworm - larvae (HV), Cotton leaf; conditions: 72 h, read-out: HV grading of mortality
Procedure, shortened: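 Products applied as acetone solutions diluted in water with 0.1% wetting agent, at 100–500 ppm; pests on host plant or food, with pests and/or medium treated. Mortality or knockdown scored 1–7 days after treatment and graded A (80–100%), B (50–79%) or C (<50%).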

[4] = system: Blattella germanica (cockroach nymphs); assay: Residual test, cockroach nymphs (BG), Plastic pot; conditions: 72 h, 3 days, read-out: BG grading of mortality
Procedure, shortened: (§1)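 Product dissolved in acetone, then diluted with water holding 0.1% by weight wetting agent to give 100 to 500 ppm preparations. Pests were held on a host plant or foodstuff, and pests and/or medium were treated. Mortality was assessed one to seven days after treatment.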

[5] = system: Musca domestica (houseflies - adults); assay: Knockdown test, houseflies - adults (MD/KD), Cotton wool/sugar; conditions: 4 hours, read-out: MD/KD grading of knockdown
Procedure, shortened: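 Product was dissolved in acetone and diluted with water containing 0.1% wetting agent to 100–500 ppm. The flies and/or their food medium were treated with the preparation. Mortality was scored 1–7 days after treatment, with an additional knockdown assessment for houseflies.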

[6] = system: Nephotettix cincticeps; assay: Contact test, leaf hopper in place of Nilaparvata lugens (NL**), Rice plant; conditions: 72 h, 3 days, read-out: NL** grading of mortality (Nephotettix cincticeps)
Experimental: (§2) The activity of the Product was determined using a variety of insect pests. The Product was used in the form of liquid preparations containing from 100 to 500 parts per million (ppm) by weight of the Product. The preparations were made by dissolving the Product in acetone and diluting the solutions with water containing 0.1% by weight of a wetting agent sold under the trade name "SYNPERONIC" NX until the liquid preparations contained the required concentration of the Product. "SYNPERONIC" is a Registered Trade Mark.
(§3) The test procedure adopted with regard to each pest was basically the same and comprised supporting a number of the pests on a medium which was usually a host plant or a foodstuff on which the pests feed, and treating either or both the pests and the medium with the preparations. The mortality of the pests was then assessed at periods usually varying from one to seven days after the treatment.
The results of the tests are given in Table III for each of the Products, at the rate in parts per million given in the second column as a grading of mortality designated as A, B or C wherein A indicates 80-100% mortality or knockdown (70-100% for Meloidogyne incognita), B indicates 50-79% mortality knockdown or knockdown (50-69% for Meloidogyne incognita) and C indicates less than 50% mortality or knockdown. […]

[7] = system: Tetranychus urticae (spider mites - adult); assay: Contact test, spider mites - adult (TUa), French bean leaf; conditions: 72 h, 3 days, read-out: TUA grading of mortality
Procedure, shortened: as §1

[8] = system: Musca domestica (houseflies - adults); assay: Contact test, houseflies - adults (MD), Cotton wool/sugar; conditions: 24 h, 1 day, read-out: MD grading of mortality
Procedure, shortened: as §1

[9] = system: Diabrotica balteata (rootworm larvae); assay: Residual test, rootworm larvae (DB), Filter paper/maize seed; conditions: 72 h, 3 days, read-out: DB grading of mortality
Procedure, shortened: as §1

[10] = system: Nilaparvata lugens (brown plant hopper - nymphs); assay: Contact test, brown plant hopper - nymphs (NL), Rice plant; conditions: 72 h, 500 ppm, 3 days, read-out: NL grading of mortality
Procedure, shortened: as §1

[11] = system: carp; assay: Mortality to carp; conditions: after 48 hours at 10 parts per million
Description: The compounds according to formula I and compositions comprising them have shown themselves to be particularly useful in controlling pests of maize and rice such as Chilo (stem borers), Nilaparvata and Nephotettix (plant hoppers) as well as lepidopteran pests of cotton, for example Heliothis spp. This activity is combined with a low level of hazard to aquatic organisms, eg. fish, which renders the compounds particularly suitable for use in aquatic environments, such as for the control of insect pests of paddy rice and for the control of larvae of insect vectors of disease, for example mosquitos. Thus, for example, compound 2 in Table I caused no mortality to carp after 48 hours at a concentration of 10 parts per million. […] (spider mites).

[12] = system: Chilo partellus (Maize stemborer - larvae); assay: Residual test, Maize stemborer - larvae (CP), Oilseed rape; conditions: 72 h, 500 ppm, 3 days, read-out: CP grading of mortality
Experimental: as §2, §3
The results of the tests are given in Table III for each of the Products, at the rate in parts per million given in the second column as a grading of mortality designated as A, B or C wherein A indicates 80-100% mortality or knockdown (70-100% for Meloidogyne incognita), B indicates 50-79% mortality knockdown or knockdown (50-69% for Meloidogyne incognita) and C indicates less than 50% mortality or knockdown.
In Table III the pest organism used is designated by a letter code and the pests species, the support medium or food, and the type and duration of test is given in Table II.
(Maize stemborer - larvae)

[13] = system: Meloidogyne incognita (Tomato root knot eelworm - larvae); assay: Residual test, Tomato root knot eelworm - larvae (MI), Semi in-vitro; conditions: 168 h, rate column 500 ppm, application rate is half that recorded, 7 days, read-out: MI grading of mortality

Question: With `FC(F)(F)COc1ccc(C(CCCc2cccc(Oc3ccccc3)c2)C(F)(F)F)cc1` (racemic) [Compound 73, 1,1,1-trifluoro-2-[4-(2,2,2-trifluoroethoxy)phenyl]-5-(3-phenoxyphenyl)pentane] as the molecule, how does the mortality at 250 ppm ([1]; 250 ppm) read?
Answer: The mortality at 250 ppm was 80 to 100%.

Question: What about the mortality at 250 ppm ([2]; 250 ppm) of the same molecule?
Answer: The mortality at 250 ppm was 80 to 100%.

Question: What about the mortality at 250 ppm [3] of the same molecule?
Answer: The mortality at 250 ppm was 80 to 100%.

Question: And the mortality at 250 ppm ([4]; 250 ppm)?
Answer: Its mortality at 250 ppm is 80 to 100%.

Question: What about the pest or weed control at 250 ppm ([5]; 250 ppm) of the same molecule?
Answer: Its pest or weed control at 250 ppm is 80 to 100%.

Question: What about the mortality at 250 ppm ([6]; 250 ppm) of the same molecule?
Answer: Its mortality at 250 ppm is 80 to 100%.

Question: What about the mortality at 250 ppm ([7]; 250 ppm) of the same molecule?
Answer: Its mortality at 250 ppm is 80 to 100%.

Question: What about the mortality at 250 ppm ([8]; 250 ppm) of the same molecule?
Answer: The mortality at 250 ppm was 80 to 100%.

Question: And the mortality at 250 ppm ([9]; 250 ppm)?
Answer: Its mortality at 250 ppm is 80 to 100%.

Question: How did the mortality at 500 ppm [10] turn out when `CCOc1ccc(C(CCCc2cccc(Oc3ccccc3)c2)C(F)(F)F)cc1` (racemic) [Compound 2, 2-(4-ethoxyphenyl)-5-(3-phenoxyphenyl)-1,1,1-trifluoropentane] was run?
Answer: Its mortality at 500 ppm is 80 to 100%.

Question: And the mortality to carp [11]?
Answer: The mortality to carp was “no mortality”.

Question: And the mortality at 500 ppm [1]?
Answer: The mortality at 500 ppm was 80 to 100%.

Question: What about the mortality at 500 ppm [12] of the same molecule?
Answer: Its mortality at 500 ppm is 80 to 100%.

Question: And the mortality at 500 ppm [3]?
Answer: Its mortality at 500 ppm is 80 to 100%.

Question: And the mortality at 500 ppm [4]?
Answer: Its mortality at 500 ppm is 80 to 100%.

Question: What about the mortality at 250 µg/mL [13] of the same molecule?
Answer: Its mortality at 250 µg/mL is under 50%.

Question: What about the pest or weed control at 500 ppm [5] of the same molecule?
Answer: Its pest or weed control at 500 ppm is 80 to 100%.

Question: What about the mortality at 500 ppm [8] of the same molecule?
Answer: Its mortality at 500 ppm is 80 to 100%.

Question: What about the mortality at 500 ppm [9] of the same molecule?
Answer: The mortality at 500 ppm was 80 to 100%.

Question: For `Fc1ccc(CCC=C(c2ccc(OC(F)(F)F)cc2)C(F)F)cc1Oc1ccccc1` [Compound 26, 1,1-Difluoro-2-(4-trifluoromethoxyphenyl)-5-(4-fluoro-3-phenoxyphenyl)pent-2-ene], which mortality at 500 ppm [1] is on record?
Answer: The mortality at 500 ppm was 80 to 100%.

Question: And the mortality at 500 ppm ([2]; 500 ppm)?
Answer: Its mortality at 500 ppm is 80 to 100%.

Question: And the mortality at 500 ppm [3]?
Answer: Its mortality at 500 ppm is 80 to 100%.

Question: What about the mortality at 500 ppm [4] of the same molecule?
Answer: Its mortality at 500 ppm is 80 to 100%.

Question: What about the pest or weed control at 500 ppm [5] of the same molecule?
Answer: Its pest or weed control at 500 ppm is 80 to 100%.

Question: What about the mortality at 500 ppm ([6]; 500 ppm) of the same molecule?
Answer: The mortality at 500 ppm was 80 to 100%.

Question: And the mortality at 500 ppm ([7]; 500 ppm)?
Answer: Its mortality at 500 ppm is 80 to 100%.

Question: What about the mortality at 500 ppm [8] of the same molecule?
Answer: The mortality at 500 ppm was 80 to 100%.

Question: And the mortality at 500 ppm [9]?
Answer: Its mortality at 500 ppm is 50 to 79%.
